In patent US20240270762A1, “PENICILLIN-BINDING PROTEIN INHIBITORS” (priority 2021, published 2024):
≈ marks a conversion by molar mass, not a printed value.

Experiments:
[1] = molecular target: T1, PBP3 from Acinetobacter baumannii (ATCC 19606) (Acinetobacter baumannii, UniProt A0ABX6CK25); experiment: Bocillin-FL fluorescence polarization competition binding, A. baumannii PBP3; settings: fluorescence polarization competition binding assay using Bocillin-FL; read-out: A. baumannii PBP3 Potency
T1 sequence (A0ABX6CK25 64-610): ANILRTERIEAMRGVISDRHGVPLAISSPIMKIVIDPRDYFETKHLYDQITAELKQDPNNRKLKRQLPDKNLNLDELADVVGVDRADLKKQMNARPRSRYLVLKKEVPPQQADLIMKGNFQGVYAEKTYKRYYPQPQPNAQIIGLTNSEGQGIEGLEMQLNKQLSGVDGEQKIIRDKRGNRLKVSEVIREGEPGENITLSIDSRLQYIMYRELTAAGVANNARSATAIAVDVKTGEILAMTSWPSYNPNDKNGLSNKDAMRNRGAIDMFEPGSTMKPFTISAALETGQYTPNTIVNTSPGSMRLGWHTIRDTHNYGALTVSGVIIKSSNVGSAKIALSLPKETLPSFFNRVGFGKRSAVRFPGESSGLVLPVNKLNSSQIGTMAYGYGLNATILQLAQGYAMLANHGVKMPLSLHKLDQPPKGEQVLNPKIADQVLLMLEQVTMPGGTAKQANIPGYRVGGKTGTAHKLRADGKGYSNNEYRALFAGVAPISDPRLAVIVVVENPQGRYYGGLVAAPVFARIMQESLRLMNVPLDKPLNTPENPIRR
In short: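 Purified PBP was preincubated with inhibitor (E. coli PBP3 1.5 μM, 30 min; P. aeruginosa PBP3 0.75 μM, A. baumannii PBP3 0.2 μM and PBP1a 1 μM, 15 min), then Bocillin-FL (0.1 μM; 0.05 μM for PBP1a) added and FP read up to 60 min. EC50 = 50% loss of bound probe.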

A. baumannii ATCC 17978 = experiment: microbe, parasite or virus in culture; assay type: cell-based; settings: Acinetobacter baumannii, ATCC17978, read-out: MIC, A. baumannii ATCC 17978
A. baumannii ATCC 19606 = experiment: microbe, parasite or virus in culture; assay type: cell-based; settings: Acinetobacter baumannii, ATCC19606, read-out: MIC, A. baumannii ATCC 19606
P. aeruginosa ATCC 35151 = experiment: microbe, parasite or virus in culture; assay type: cell-based; settings: Pseudomonas aeruginosa, ATCC35151, read-out: Minimum inhibitory concentration, P. aeruginosa ATCC 35151
[2] = system: B. humptydooensis ATCC BAA-2767; experiment: microbe, parasite or virus in culture; assay type: cell-based; settings: Burkholderia humptydooensis, ATCCBAA2767, read-out: Minimum inhibitory concentration (MIC), B. humptydooensis ATCC BAA-2767
N. gonorrhoeae WHO M = experiment: Liquid broth MIC in Fastidious broth; settings: Neisseria gonorrhoeae, read-out: Minimum Inhibitory Concentration, WHO M

SMILES: O=C(NCCCN1CCN(C(=O)N[C@@H](C(=O)N[C@H]2Cc3ccc(F)c(C(=O)O)c3OB2O)c2cc(F)c(O)c(O)c2Cl)C(=O)C1=O)c1ccnc(F)c1F [Example 300, (R)-3-((R)-2-(2-chloro-5-fluoro-3,4-dihydroxyphenyl)-2-(4-(3-(2,3-difluoroisonicotinamido)propyl)-2,3-dioxopiperazine-1-carboxamido)acetamido)-7-fluoro-2-hydroxy-3,4-dihydro-2H-benzo[e][1,2]oxaborinine-8-carboxylic acid]
- IC50 [1]: < 10 µM
- MIC (A. baumannii ATCC 17978): < 1 µg/mL
- MIC (A. baumannii ATCC 19606): < 1 µg/mL
- MIC (P. aeruginosa ATCC 35151): < 1 µg/mL
- MIC [2]: < 1 µg/mL
- MIC (N. gonorrhoeae WHO M): 16 to 32 µg/mL (≈ 20.5 to 41 µM)

SMILES: Cc1cc(C(=O)NCCCN2CCN(C(=O)NC(C(=O)N[C@H]3Cc4ccc(F)c(C(=O)O)c4OB3O)c3cc(F)c(O)c(O)c3Cl)C(=O)C2=O)c(F)cn1 (stereo partly drawn) [Example 301, (3R)-3-(2-(2-chloro-5-fluoro-3,4-dihydroxyphenyl)-2-(4-(3-(5-fluoro-2-methylisonicotinamido)propyl)-2,3-dioxopiperazine-1-carboxamido)acetamido)-7-fluoro-2-hydroxy-3,4-dihydro-2H-benzo[e][1,2]oxaborinine-8-carboxylic acid]
- IC50 [1]: < 10 µM
- MIC (A. baumannii ATCC 17978): < 1 µg/mL
- MIC (A. baumannii ATCC 19606): < 1 µg/mL
- MIC (P. aeruginosa ATCC 35151): < 1 µg/mL
- MIC [2]: 2 to 4 µg/mL (≈ 2.57 to 5.15 µM)
- MIC (N. gonorrhoeae WHO M): 16 to 32 µg/mL (≈ 20.6 to 41.2 µM)

SMILES: O=C(NCCCN1CCN(C(=O)N[C@H](C(=O)N[C@H]2Cc3ccc(F)c(C(=O)O)c3OB2O)c2cc(F)c(O)c(O)c2Cl)C(=O)C1=O)c1cccc(O)c1Cl [Example 302, (R)-3-((S)-2-(4-(3-(2-chloro-3-hydroxybenzamido)propyl)-2,3-dioxopiperazine-1-carboxamido)-2-(2-chloro-5-fluoro-3,4-dihydroxyphenyl)acetamido)-7-fluoro-2-hydroxy-3,4-dihydro-2H-benzo[e][1,2]oxaborinine-8-carboxylic acid]
- IC50 [1]: 50 to 250 µM
- MIC (A. baumannii ATCC 17978): 2 to 4 µg/mL (≈ 2.52 to 5.04 µM)
- MIC (A. baumannii ATCC 19606): 32 to 64 µg/mL (≈ 40.3 to 80.6 µM)
- MIC (P. aeruginosa ATCC 35151): 2 to 4 µg/mL (≈ 2.52 to 5.04 µM)
- MIC [2]: > 128 µg/mL
- MIC (N. gonorrhoeae WHO M): > 64 µg/mL

SMILES: O=C(NCCCN1CCN(C(=O)N[C@@H](C(=O)N[C@H]2Cc3ccc(F)c(C(=O)O)c3OB2O)c2cc(F)c(O)c(O)c2Cl)C(=O)C1=O)c1cccc(O)c1Cl [Example 303, (R)-3-((R)-2-(4-(3-(2-chloro-3-hydroxybenzamido)propyl)-2,3-dioxopiperazine-1-carboxamido)-2-(2-chloro-5-fluoro-3,4-dihydroxyphenyl)acetamido)-7-fluoro-2-hydroxy-3,4-dihydro-2H-benzo[e][1,2]oxaborinine-8-carboxylic acid]
- IC50 [1]: < 10 µM
- MIC (A. baumannii ATCC 17978): < 1 µg/mL
- MIC (A. baumannii ATCC 19606): < 1 µg/mL
- MIC (P. aeruginosa ATCC 35151): < 1 µg/mL
- MIC [2]: < 1 µg/mL
- MIC (N. gonorrhoeae WHO M): 4 to 8 µg/mL (≈ 5.04 to 10.1 µM)

SMILES: O=C(NCCCN1CCN(C(=O)NC(C(=O)N[C@H]2Cc3ccc(F)c(C(=O)O)c3OB2O)c2cc(F)c(O)c(O)c2Cl)C(=O)C1=O)c1ccc(O)c(F)c1 (stereo partly drawn) [Example 304, (3R)-3-(2-(2-chloro-5-fluoro-3,4-dihydroxyphenyl)-2-(4-(3-(3-fluoro-4-hydroxybenzamido)propyl)-2,3-dioxopiperazine-1-carboxamido)acetamido)-7-fluoro-2-hydroxy-3,4-dihydro-2H-benzo[e][1,2]oxaborinine-8-carboxylic acid]
- IC50 [1]: < 10 µM
- MIC (A. baumannii ATCC 17978): < 1 µg/mL
- MIC (A. baumannii ATCC 19606): < 1 µg/mL
- MIC (P. aeruginosa ATCC 35151): < 1 µg/mL
- MIC [2]: 2 to 4 µg/mL (≈ 2.57 to 5.14 µM)
- MIC (N. gonorrhoeae WHO M): 16 to 32 µg/mL (≈ 20.6 to 41.1 µM)

SMILES: O=C(NCCCN1CCN(C(=O)NC(C(=O)N[C@H]2Cc3ccc(F)c(C(=O)O)c3OB2O)c2cc(F)c(O)c(O)c2Cl)C(=O)C1=O)c1ccc(O)c(Cl)c1 (stereo partly drawn) [Example 305, (3R)-3-(2-(4-(3-(3-chloro-4-hydroxybenzamido)propyl)-2,3-dioxopiperazine-1-carboxamido)-2-(2-chloro-5-fluoro-3,4-dihydroxyphenyl)acetamido)-7-fluoro-2-hydroxy-3,4-dihydro-2H-benzo[e][1,2]oxaborinine-8-carboxylic acid]
- IC50 [1]: < 10 µM
- MIC (A. baumannii ATCC 17978): < 1 µg/mL
- MIC (A. baumannii ATCC 19606): < 1 µg/mL
- MIC (P. aeruginosa ATCC 35151): < 1 µg/mL
- MIC [2]: 2 to 4 µg/mL (≈ 2.52 to 5.04 µM)
- MIC (N. gonorrhoeae WHO M): 16 to 32 µg/mL (≈ 20.1 to 40.3 µM)

SMILES: O=C(NCCCN1CCN(C(=O)NC(C(=O)N[C@H]2Cc3ccc(F)c(C(=O)O)c3OB2O)c2cc(F)c(O)c(O)c2Cl)C(=O)C1=O)c1ccc(O)c(F)c1F (stereo partly drawn) [Example 306, (3R)-3-(2-(2-chloro-5-fluoro-3,4-dihydroxyphenyl)-2-(4-(3-(2,3-difluoro-4-hydroxybenzamido)propyl)-2,3-dioxopiperazine-1-carboxamido)acetamido)-7-fluoro-2-hydroxy-3,4-dihydro-2H-benzo[e][1,2]oxaborinine-8-carboxylic acid]
- IC50 [1]: < 10 µM
- MIC (A. baumannii ATCC 17978): < 1 µg/mL
- MIC (A. baumannii ATCC 19606): < 1 µg/mL
- MIC (P. aeruginosa ATCC 35151): < 1 µg/mL
- MIC [2]: 2 to 4 µg/mL (≈ 2.51 to 5.03 µM)
- MIC (N. gonorrhoeae WHO M): 16 to 32 µg/mL (≈ 20.1 to 40.2 µM)

SMILES: O=C(NCCCN1CCN(C(=O)NC(C(=O)N[C@H]2Cc3ccc(F)c(C(=O)O)c3OB2O)c2cc(F)c(O)c(O)c2Cl)C(=O)C1=O)c1ccc(O)cc1O (stereo partly drawn) [Example 307, (3R)-3-(2-(2-chloro-5-fluoro-3,4-dihydroxyphenyl)-2-(4-(3-(2,4-dihydroxybenzamido)propyl)-2,3-dioxopiperazine-1-carboxamido)acetamido)-7-fluoro-2-hydroxy-3,4-dihydro-2H-benzo[e][1,2]oxaborinine-8-carboxylic acid]
- IC50 [1]: < 10 µM
- MIC (A. baumannii ATCC 17978): < 1 µg/mL
- MIC (A. baumannii ATCC 19606): < 1 µg/mL
- MIC (P. aeruginosa ATCC 35151): < 1 µg/mL
- MIC [2]: 8 to 16 µg/mL (≈ 10.3 to 20.6 µM)
- MIC (N. gonorrhoeae WHO M): 16 to 32 µg/mL (≈ 20.6 to 41.2 µM)
